pEC50: −log10 of the molar value. Some results are limits rather than exact numbers.

One assay has as its system T1, LXR.
T1 construct: fused on or other part: GST fused to the LBD in the FRET assay
In words: Measured EC50 or IC50 for LXR (LXRα and/or LXRβ; assay and subtype not given). As to conditions: IC50 or EC50 class, subtype not specified. The procedure:
(§1) Measured EC50 or IC50 for LXR, and FXR for Compounds of the Invention
(§2) LXR and FXR activities for various compounds of the invention are presented in the following table; those compounds with EC50 or IC50 values <10 μM for at least one of LXRα, LXRβ or FXR are considered to be active. In the following Table, IC50 or EC50 data is represented as follows: A<1 μM, B=1-10 μm, and C>10 μM.
By pEC50 is commonly meant −log10 of the EC50, conventionally taken in molar units. `CC(C)(O)c1cc(COc2ccc(-c3ccc(C(=O)O)cc3Cl)cc2)n(-c2c(Cl)cccc2Cl)n1` [Example 906, 2-chloro-4′-({[1-(2,6-dichlorophenyl)-3-(1-hydroxy-1-methylethyl)-1H-pyrazol-5-yl]methyl}oxy)biphenyl-4-carboxylic acid]: the negative logarithm of the EC50 (pEC50) was 5.00 to 6.00.
`CC(C)c1cc(COc2ccc(-c3ccc(C(=O)O)cc3Cl)cc2)n(-c2c(Cl)cccc2Cl)n1` [Example 907, 2-chloro-4′-({[1-(2,6-dichlorophenyl)-3-(1-methylethyl)-1H-pyrazol-5-yl]methyl}oxy)biphenyl-4-carboxylic acid] had a pEC50 of 5.00 to 6.00.
Molecule `O=C(O)c1ccc(-c2ccc(OCc3cc(C(F)(F)F)nn3-c3c(Cl)cccc3Cl)cc2)cc1` [Example 921, 4′-({[1-(2,6-dichlorophenyl)-3-(trifluoromethyl)-1H-pyrazol-5-yl]methyl}oxy)biphenyl-4-carboxylic acid] gave a pEC50 of under 5.00.
On to `O=C(O)c1ccc(-c2ccc(OCc3cc(C(F)(F)F)nn3-c3c(Cl)cccc3Cl)cc2)c(Cl)c1` [Example 946, 2-chloro-4′-({[1-(2,6-dichlorophenyl)-3-(trifluoromethyl)-1H-pyrazol-5-yl]methyl}oxy)biphenyl-4-carboxylic acid], for which the pEC50 is over 6.00.
Take `CC(C)c1cc(COc2ccc(-c3ccc(C(=O)O)cc3Cl)cc2)n(-c2c(Cl)cccc2Cl)n1` [Example 947, 2-chloro-4′-({[1-(2,6-dichlorophenyl)-3-(1-methylethyl)-1H-pyrazol-5-yl]methyl}oxy)biphenyl-4-carboxylic acid]: the pEC50 was over 6.00.
In turn, `CC(C)(O)c1cc(-c2ccc(-c3cccc(S(C)(=O)=O)c3)s2)n(-c2c(F)cccc2F)n1` [Example 948, 2-[1-(2,6-difluorophenyl)-5-{5-[3-(methylsulfonyl)phenyl]-2-thienyl}-1H-pyrazol-3-yl]propan-2-ol] showed a pEC50 of over 6.00.
For the molecule `CS(=O)(=O)c1cccc(-c2ccc(-n3cc(N4CCC(O)C4)nc3-c3ccccc3C(F)(F)F)cc2)c1` (stereo not drawn) [Example 1003, 1-(1-(3′-(methylsulfonyl)biphenyl-4-yl)-2-(2-(trifluoromethyl)phenyl)-1H-imidazol-4-yl)pyrrolidin-3-ol], the pEC50 is over 6.00.
Same read-out and setting: to `CS(=O)(=O)c1cccc(-c2ccc(-n3cc(N4CCCCC4)nc3-c3ccccc3C(F)(F)F)cc2)c1` [Example 1004, 1-(1-(3′-(methylsulfonyl)biphenyl-4-yl)-2-(2-(trifluoromethyl)phenyl)-1H-imidazol-4-yl)piperidine] belongs over 6.00; to `CS(=O)(=O)c1cccc(-c2ccc(-n3cc(N4CCCC4=O)nc3-c3c(Cl)cccc3Cl)cc2)c1` [Example 1005, 1-{2-(2,6-dichlorophenyl)-1-[3′-(methylsulfonyl)biphenyl-4-yl]-1H-imidazol-4-yl}pyrrolidin-2-one], over 6.00.
`CS(=O)(=O)c1cccc(-c2ccc(-n3cc(-n4cnc(C#N)c4)nc3-c3ccccc3C(F)(F)F)cc2)c1` [Example 1008, 1′-(3′-(methylsulfonyl)biphenyl-4-yl)-2′-(2-(trifluoromethyl)phenyl)-1′H-1,4′-biimidazole-4-carbonitrile] had a pEC50 of over 6.00.
The molecule `CS(=O)(=O)c1cccc(-c2ccc(-n3cc(-n4cnc(CO)c4)nc3-c3ccccc3C(F)(F)F)cc2)c1` [Example 1009, (1′-(3′-(methylsulfonyl)biphenyl-4-yl)-2′-(2-(trifluoromethyl)phenyl)-1′H-1,4′-biimidazol-4-yl)methanol] had a pEC50 of over 6.00.
On the same count and under the same terms, to `CS(=O)(=O)c1cccc(-c2ccc(-n3cc(-n4cccc4C#N)nc3-c3ccccc3C(F)(F)F)cc2)c1` [Example 1010] belongs over 6.00; to `CS(=O)(=O)c1cccc(-c2ccc(-n3cc(-c4ncco4)nc3-c3ccccc3C(F)(F)F)cc2)c1` [Example 1011, 2-(1-(3′-(methylsulfonyl)biphenyl-4-yl)-2-(2-(trifluoromethyl)phenyl)-1H-imidazol-4-yl)oxazole], under 5.00.
`CS(=O)(=O)c1cccc(-c2ccc(-n3cc(-c4ncco4)nc3-c3ccccc3Cl)c(Cl)c2)c1` [Example 1012, 2-(1-(3-chloro-3′-(methylsulfonyl)biphenyl-4-yl)-2-(2-chlorophenyl)-1H-imidazol-4-yl)oxazole] had a pEC50 of 5.00 to 6.00.
In turn, `Cc1csc(-c2cn(-c3ccc(-c4cccc(S(C)(=O)=O)c4)cc3)c(-c3c(Cl)cccc3Cl)n2)n1` [Example 1013, 2-(2-(2,6-dichlorophenyl)-1-(3′-(methylsulfonyl)biphenyl-4-yl)-1H-imidazol-4-yl)-4-methylthiazole] showed a pEC50 of over 6.00.
As to `CS(=O)(=O)c1cccc(-c2ccc(-n3cc(-c4nccs4)nc3-c3c(Cl)cccc3Cl)cc2)c1` [Example 1014, 2-(2-(2,6-dichlorophenyl)-1-(3′-(methylsulfonyl)biphenyl-4-yl)-1H-imidazol-4-yl)thiazole], the pEC50 is over 6.00.
`CS(=O)(=O)c1cccc(-c2ccc(-n3cc([C@H]4CCCN4)nc3-c3ccccc3C(F)(F)F)cc2)c1` [Example 1016, 1-(3′-(methylsulfonyl)biphenyl-4-yl)-4-((R)-pyrrolidin-2-yl)-2-(2-(trifluoromethyl)phenyl)-1H-imidazole]: the pEC50 is over 6.00.
`CC(C)(C)OC(=O)N1CCC[C@@H]1c1cn(-c2ccc(-c3cccc(S(C)(=O)=O)c3)cc2)c(-c2ccccc2C(F)(F)F)n1` [Example 1017, (R)-tert-butyl 2-(1-(3′-(methylsulfonyl)biphenyl-4-yl)-2-(2-(trifluoromethyl)phenyl)-1H-imidazol-4-yl)pyrrolidine-1-carboxylate] had a pEC50 of over 6.00.
`CC(=O)N1CCC[C@@H]1c1cn(-c2ccc(-c3cccc(S(C)(=O)=O)c3)cc2)c(-c2ccccc2C(F)(F)F)n1` [Example 1019, 1-((2R)-2-(1-(3′-(methylsulfonyl)biphenyl-4-yl)-2-(2-(trifluoromethyl)phenyl)-1H-imidazol-4-yl)pyrrolidin-1-yl)ethanone] had a pEC50 of under 5.00.
The molecule `CS(=O)(=O)c1cccc(-c2ccc(-n3cc(-c4n[nH]c(=O)o4)nc3-c3ccccc3C(F)(F)F)cc2)c1` [Example 1023, 5-(1-(3′-(methylsulfonyl)biphenyl-4-yl)-2-(2-(trifluoromethyl)phenyl)-1H-imidazol-4-yl)-1,3,4-oxadiazol-2(3H)-one] showed a pEC50 of over 6.00.
`Cc1nnc(-c2cn(-c3ccc(-c4cccc(S(C)(=O)=O)c4)cc3)c(-c3ccccc3C(F)(F)F)n2)o1` [Example 1024, 2-methyl-5-(1-(3′-(methylsulfonyl)biphenyl-4-yl)-2-(2-(trifluoromethyl)phenyl)-1H-imidazol-4-yl)-1,3,4-oxadiazole] had a pEC50 of over 6.00.
As to `CS(=O)(=O)c1cccc(-c2ccc(-n3cc(-c4nnc(C(F)(F)F)o4)nc3-c3ccccc3Cl)c(Cl)c2)c1` [Example 1025, 2-(1-(3-chloro-3′-(methylsulfonyl)biphenyl-4-yl)-2-(2-chlorophenyl)-1H-imidazol-4-yl)-5-(trifluoromethyl)-1,3,4-oxadiazole], the pEC50 is over 6.00.
In turn, `Cc1coc(-c2cn(-c3ccc(-c4cccc(S(C)(=O)=O)c4)cc3)c(-c3ccccc3C(F)(F)F)n2)n1` [Example 1026, methyl-2-(1-(3′-(methylsulfonyl)biphenyl-4-yl)-2-(2-(trifluoromethyl)phenyl)-1H-imidazol-4-yl)oxazole] had a pEC50 of over 6.00.
In turn, `CS(=O)(=O)c1cccc(-c2ccc(-n3cc(-c4cnco4)nc3-c3ccccc3Cl)c(Cl)c2)c1` [Example 1028, 5-(1-(3-chloro-3′-(methylsulfonyl)biphenyl-4-yl)-2-(2-chlorophenyl)-1H-imidazol-4-yl)oxazole] gave a pEC50 of over 6.00.
Molecule `CS(=O)(=O)c1cccc(-c2ccc(-n3cc(C4(C#N)CCOCC4)nc3-c3ccccc3C(F)(F)F)cc2)c1` [Example 1031, 4-(1-(3′-methylsulfonyl)biphenyl-4-yl)-2-(2-(trifluoromethyl)phenyl-1H-imidazol-4-yl)tetrahydro-2H-pyran-4-carbonitrile] had a pEC50 of over 6.00.
For the molecule `Cc1nc(-c2cn(-c3ccc(-c4cccc(S(C)(=O)=O)c4)cc3)c(-c3ccccc3C(F)(F)F)n2)no1` [Example 1032], the pEC50 is over 6.00.
Molecule `Cn1oc(=O)nc1-c1cn(-c2ccc(-c3cccc(S(C)(=O)=O)c3)cc2)c(-c2ccccc2C(F)(F)F)n1` [Example 1034] gave a pEC50 of over 6.00.
As to `CS(=O)(=O)c1cccc(-c2ccc(-n3cc(-c4nc(=O)o[nH]4)nc3-c3ccccc3C(F)(F)F)cc2)c1` [Example 1035], the pEC50 was over 6.00.
Take `Cn1oc(=S)nc1-c1cn(-c2ccc(-c3cccc(S(C)(=O)=O)c3)cc2)c(-c2ccccc2C(F)(F)F)n1` [Example 1036]: the pEC50 is over 6.00.
On the same count and under the same terms, the result for `Cc1nsc(-c2cn(-c3ccc(-c4cccc(S(C)(=O)=O)c4)cc3)c(-c3ccccc3C(F)(F)F)n2)n1` [Example 1037] reads under 5.00.

For the next assay, the target named is T2, FXR (Homo sapiens, UniProt Q96RI1).
T2 sequence (Q96RI1 1-472 isoform Q96RI1-2): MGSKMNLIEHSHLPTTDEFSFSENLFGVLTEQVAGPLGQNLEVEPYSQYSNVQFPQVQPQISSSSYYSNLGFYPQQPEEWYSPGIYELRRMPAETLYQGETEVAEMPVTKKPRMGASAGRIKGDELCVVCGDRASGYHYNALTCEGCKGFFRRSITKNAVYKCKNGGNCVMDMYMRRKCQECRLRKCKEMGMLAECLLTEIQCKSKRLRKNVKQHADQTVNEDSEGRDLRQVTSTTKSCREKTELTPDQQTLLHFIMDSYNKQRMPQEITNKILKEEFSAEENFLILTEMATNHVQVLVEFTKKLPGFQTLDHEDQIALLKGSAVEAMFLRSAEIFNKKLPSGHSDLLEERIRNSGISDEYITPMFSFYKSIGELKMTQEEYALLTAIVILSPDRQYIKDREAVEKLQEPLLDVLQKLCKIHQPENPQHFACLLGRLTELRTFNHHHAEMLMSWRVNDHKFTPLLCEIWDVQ
The assay can be described thus: Measured EC50 or IC50 for FXR (assay not given). The note with it: IC50 or EC50 class; assay not specified. The procedure: as §1, §2
In turn, `CC(C)(O)c1cc(COc2ccc(-c3ccc(C(=O)O)cc3Cl)cc2)n(-c2c(Cl)cccc2Cl)n1` [Example 906, 2-chloro-4′-({[1-(2,6-dichlorophenyl)-3-(1-hydroxy-1-methylethyl)-1H-pyrazol-5-yl]methyl}oxy)biphenyl-4-carboxylic acid] gave a pEC50 of 5.00 to 6.00.
The molecule `CC(C)c1cc(COc2ccc(-c3ccc(C(=O)O)cc3Cl)cc2)n(-c2c(Cl)cccc2Cl)n1` [Example 907, 2-chloro-4′-({[1-(2,6-dichlorophenyl)-3-(1-methylethyl)-1H-pyrazol-5-yl]methyl}oxy)biphenyl-4-carboxylic acid] gave a pEC50 of over 6.00.
As to `O=C(O)c1ccc(-c2ccc(OCc3cc(C(F)(F)F)nn3-c3c(Cl)cccc3Cl)cc2)cc1` [Example 921, 4′-({[1-(2,6-dichlorophenyl)-3-(trifluoromethyl)-1H-pyrazol-5-yl]methyl}oxy)biphenyl-4-carboxylic acid], the pEC50 is 5.00 to 6.00.
The molecule `O=C(O)c1ccc(-c2ccc(OCc3cc(C(F)(F)F)nn3-c3c(Cl)cccc3Cl)cc2)c(Cl)c1` [Example 946, 2-chloro-4′-({[1-(2,6-dichlorophenyl)-3-(trifluoromethyl)-1H-pyrazol-5-yl]methyl}oxy)biphenyl-4-carboxylic acid] had a pEC50 of 5.00 to 6.00.
Turning to `CC(C)c1cc(COc2ccc(-c3ccc(C(=O)O)cc3Cl)cc2)n(-c2c(Cl)cccc2Cl)n1` [Example 947, 2-chloro-4′-({[1-(2,6-dichlorophenyl)-3-(1-methylethyl)-1H-pyrazol-5-yl]methyl}oxy)biphenyl-4-carboxylic acid], the pEC50 was over 6.00.
The same measure, in the same setting: the result for `CC(C)(O)c1cc(-c2ccc(-c3cccc(S(C)(=O)=O)c3)s2)n(-c2c(F)cccc2F)n1` [Example 948, 2-[1-(2,6-difluorophenyl)-5-{5-[3-(methylsulfonyl)phenyl]-2-thienyl}-1H-pyrazol-3-yl]propan-2-ol] reads 5.00 to 6.00.

The record behind these values is patent US7998995B2 (Exelixis Patent Company LLC, priority 2006, dated 2011).
